The source of these data is the supplement of paper PMC12613149.

The structures appear in SMILES notation.

Data set [1] can be described thus: reversed-phase LC retention time (C18, 15 min MeOH gradient); higher = more hydrophobic / later elution. On the procedure:
(§1)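 Reference mixture of environmental contaminants analysed by RP-LC (BEH C18, 50 °C; ESI+ with water/MeOH plus formic acid and ammonium formate, ESI- with ammonium bicarbonate) coupled to a timsTOF Pro 2 with trapped ion mobility in nitrogen (ramp/accumulation 100 ms). CCS was calibrated with Agilent tune mix (CCS compendium) and averaged over five injections at 0.5-500 ng/mL. The table reports the lowest-CCS (putative monomer) peak; retention times are on the same gradient.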

A short description of data set [2]: collision cross section (TIMS, N2 drift gas) of the primary ion; higher = larger gas-phase ion size. On the procedure: as §1
Setting [3] is: ionization mode: ESI+, ion species: [M+H]+.
Setting [4] is: ionization mode: ESI-, ion species: [M-H]-.

For the molecule `CCCCCCCC/C=C\CCCCCCCCCCCC(N)=O` [Erucamide], the “reversed-phase LC retention time” value in data set [1] (setting [3]) was 19.6 min. The collision cross section in data set [2] (setting [3]) amounted to 200.01 Å².

As to `CCOC(=O)NCCOc1ccc(Oc2ccccc2)cc1` [Fenoxycarb], the “reversed-phase LC retention time” value in data set [1] (setting [3]) amounted to 15.2 min. In data set [2] (setting [3]), the collision cross section turned out to be 180.55 Å².

With `O=c1c(-c2ccc(O)cc2)coc2cc(O)ccc12` [Daidzein], the “reversed-phase LC retention time” value in data set [1] (setting [3]) was 11.1 min; in data set [1] (setting [4]) it was 9.78 min. For the same molecule, the collision cross section came to 155.18 Å² in data set [2] (setting [3]) and 157.58 Å² in data set [2] (setting [4]).

Turning to `c1ccc(/N=N/c2ccccc2)cc1` [Azobenzene], the “reversed-phase LC retention time” value in data set [1] (setting [3]) amounted to 13.1 min. In addition, in data set [2] (setting [3]), the collision cross section turned out to be 138.4 Å².

On to `Oc1cccc2[nH]nnc12` [4-Hydroxybenzotriazole], for which, in data set [1] (setting [3]), the “reversed-phase LC retention time” value came to 5.99 min. The molecule also returned a collision cross section in data set [2] (setting [3]) of 123.13 Å².

`CNCCCN1c2ccccc2CCc2ccccc21` [Desipramine]: the “reversed-phase LC retention time” value in data set [1] (setting [3]) came out at 12.9 min. Moreover, the collision cross section in data set [2] (setting [3]) is listed as 164.14 Å².

With `O=S(=O)(O)C(F)(F)C(F)(F)C(F)(F)C(F)(F)C(F)(F)C(F)(F)F` [Perfluorohexanesulfonic acid], the “reversed-phase LC retention time” value in data set [1] (setting [4]) was 13.9 min. In addition, the collision cross section in data set [2] (setting [4]) is recorded as 150.32 Å².

For `C[C@@H](O)CCCCn1c(=O)c2c(ncn2C)n(C)c1=O` [Lisofylline], in data set [1] (setting [3]), the “reversed-phase LC retention time” value came out at 10.3 min. The molecule further had a collision cross section in data set [2] (setting [3]) of 162.42 Å².

Regarding `Cc1cc(N)c2ccccc2n1` [4-Amino-2-methylquinoline], in data set [1] (setting [3]), the “reversed-phase LC retention time” value was 6.89 min. The collision cross section in data set [2] (setting [3]) stood at 128.9 Å².

For the molecule `O=S(=O)(O)C(F)(F)C(F)(F)C(F)(F)C(F)(F)C(F)(F)C(F)(F)C(F)(F)F` [Perfluoroheptanesulfonic acid], the “reversed-phase LC retention time” value in data set [1] (setting [4]) amounted to 14.7 min. This molecule gave a collision cross section in data set [2] (setting [4]) of 159.45 Å².

In the case of `S=c1nc[nH]c2nc[nH]c12` [6-Mercaptopurine], the “reversed-phase LC retention time” value in data set [1] (setting [3]) stood at 2.22 min. The collision cross section in data set [2] (setting [3]) is recorded as 126.69 Å².

For the molecule `CC(C)CCCCOC(=O)c1ccccc1C(=O)OCCCCC(C)C` [Diisoheptyl phthalate], the “reversed-phase LC retention time” value in data set [1] (setting [3]) is 18.6 min. In data set [2] (setting [3]), this molecule yielded a collision cross section of 204.46 Å².

With `C[C@]12CCC(=O)C=C1CC[C@@H]1[C@@H]2CC[C@]2(C)C(=O)CC[C@@H]12` [4-Androstene-3,17-dione], the “reversed-phase LC retention time” value in data set [1] (setting [3]) was 13.9 min. The molecule also yielded a collision cross section in data set [2] (setting [3]) of 172.73 Å².

For the molecule `COc1ccc(C(=O)c2ccccc2)c(O)c1` [Benzophenone-3], the “reversed-phase LC retention time” value in data set [1] (setting [3]) was determined as 15.1 min. The same molecule had a collision cross section in data set [2] (setting [3]) of 148.22 Å².

For the molecule `O=C(CC(C(=O)OC1CCCCC1)S(=O)(=O)O)OC1CCCCC1` (stereo not drawn) [Dicyclohexyl sulfosuccinate], the “reversed-phase LC retention time” value in data set [1] (setting [3]) and in data set [1] (setting [4]) was 14.2 min throughout. The collision cross section amounted to 201.58 Å² in data set [2] (setting [3]) and 189.02 Å² in data set [2] (setting [4]).

`CCCCCCCCCCCC(=O)NCC(C)O` (stereo not drawn) [Lauric isopropanolamide]: the “reversed-phase LC retention time” value in data set [1] (setting [3]) was 16.6 min. This molecule also returned a collision cross section in data set [2] (setting [3]) of 178.97 Å².

Consider `O=C(NC1CCCCC1)NC1CCCCC1` [Dicyclohexylurea], for which the results for the “reversed-phase LC retention time” value in data set [1] (setting [3]) and in data set [1] (setting [4]) were 13.9 min and 14.3 min, respectively. The collision cross section in data set [2] (setting [3]) turned out to be 160.65 Å²; in data set [2] (setting [4]), 163.68 Å².

`CCCCc1ncc(C(=O)O)n1Cc1ccc(C(=O)O)cc1` [Eprosartan acid]: the “reversed-phase LC retention time” value in data set [1] (setting [4]) amounted to 7.27 min. Besides, the collision cross section in data set [2] (setting [4]) turned out to be 178.16 Å².

For `CCCCNc1ccc(C(=O)OCCN(C)C)cc1` [Tetracain], the “reversed-phase LC retention time” value in data set [1] (setting [3]) was determined as 11.2 min. Besides, the collision cross section in data set [2] (setting [3]) is on record as 173.87 Å².

Regarding `CCC(Cc1ccccc1)(C(=O)c1ccc(N2CCOCC2)cc1)N(C)C` (stereo not drawn) [Irgacure 369], the “reversed-phase LC retention time” value in data set [1] (setting [3]) came to 11.3 min. This molecule also came in with a collision cross section in data set [2] (setting [3]) of 196.72 Å².

Turning to `CCCCOC(=O)CCCCCCCCC(=O)OCCCC` [Dibutyl sebacate], the “reversed-phase LC retention time” value in data set [1] (setting [3]) worked out at 18 min. Also, the collision cross section in data set [2] (setting [3]) is recorded as 185.48 Å².

With `O=C(O)CCCCCCCC(=O)O` [Azelaic acid], in data set [1] (setting [4]), the “reversed-phase LC retention time” value amounted to 0.98 min. Further, the collision cross section in data set [2] (setting [4]) is 138.44 Å².

As to `Nc1ccccc1-c1ccccc1` [2-Aminobiphenyl], in data set [1] (setting [3]), the “reversed-phase LC retention time” value turned out to be 12.8 min. Further, the collision cross section in data set [2] (setting [3]) is given as 141.24 Å².

Take `N[C@@H](Cc1cc(I)c(Oc2ccc(O)c(I)c2)c(I)c1)C(=O)O` [3,3',5-Triiodo-L-thyronine]: the collision cross section in data set [2] (setting [3]) is 209.12 Å²; in data set [2] (setting [4]), 199.54 Å².

`CC(C)(C)c1ccc(O)cc1` [4-tert-Butylphenol] displayed a collision cross section in data set [2] (setting [4]) of 137.69 Å².

In data set [2] (setting [3]), `CC(=O)[C@H]1CC[C@H]2[C@@H]3CCC4=CC(=O)CC[C@]4(C)[C@H]3CC[C@]12C` [Progesterone] yielded a collision cross section of 180.93 Å².

`CCC(=C(c1ccc(O)cc1)c1ccc(OCCN(C)C)cc1)c1ccccc1` [4-Hydroxytamoxifen]: the collision cross section in data set [2] (setting [3]) is 202.55 Å²; in data set [2] (setting [4]) it was 214.38 Å².
